Earlier results as cited in patent US9439853B2, “Form of administration of enkephalinase inhibitor” (BIOPROJET, priority 2010, dated 2016).

Details: for ondansetron the water phase of the suspension

Compound	solubility in water
CC(=O)SCC(Cc1ccccc1)C(=O)NCC(=O)OCc1ccccc1 (centres unmarked) [Racecadotril]	insoluble in water
Cc1nccn1CC1CCc2c(c3ccccc3n2C)C1=O (centres unmarked) [ondansetron]	soluble in the water phase of the suspension
